Data taken from patent US20210270815A1, “SPERM FERTILITY CAPACITY TEST AND SPERM DECAPACITATING SUPPLEMENT” (priority 2018, published 2021).
Residues, ends and D or L forms follow the SMILES beside them. *: point of attachment. Cbz = O=C(OCc1ccccc1)*

Key:
boar spermatozoa [1] = assay: Zinc signature (FZ3, image-based flow cytometry) of boar spermatozoa after 4 hours of in vitro capacitation (IVC); format: cell-based, Sus scrofa
Description: Fresh boar spermatozoa were capacitated using a protocol that rendered them capable of recognizing and binding to ZP, as well as undergoing acrosomal exocytosis and penetrating the oocyte ZP^11. IVC-induced protein tyrosine phosphorylation changes are shown in FIG. 3; acrosomal status and plasma membrane changes are shown in FIG. 4A and FIG. 4B. Briefly, spermatozoa were washed of seminal plasma once with noncapacitating media (NCM), a modified TL-HEPES medium, free of calcium dichloride (CaCl2) and addition of 11 mM D-glucose, with pH adjusted to 7.2. Spermatozoa were then resuspended in 0.5 mL in vitro capacitation (IVC) media, TL-HEPES-PVA supplemented with 5 mM sodium pyruvate, 11 mM D-glucose, 2 mM CaCl2, 2 mM sodium bicarbonate, and 2% (m/v) bovine serum albumin, and incubated in a 37° C. water bath for 4 hours, with sperm rotation performed every 60 minutes. Control incubations under non-IVC conditions used NCM. Proteasome inhibitors (100 μM MG-132 and 10 μM Epox/CLBL/MG-132) were mixed with IVC media prior to sperm pellet resuspension. 100 μM M MG-132 and ‘100 μM’ vehicle contained 0.5% (v/v) DMSO. 10 μM Epox/CLBL/MG-132 and ‘10 μM’ vehicle contained 0.3% (v/v) DMSO. PVA (polyvinyl alcohol) helped to reduce sperm aggregation and spermatozoa were pipetted repeatedly to dissociate sperm aggregates in a satisfactory manner prior to IBFC data acquisition. To confirm normal capacitation in the experimental IVC media, compared to 15 mM sodium bicarbonate IVC media, normal hyperactivation status was recorded and tyrosine phosphorylation status was normal (FIG. 3). Unlike murine or rodent sperm tyrosine phosphorylation, porcine tyrosine phosphorylation is much more modest, with less prominent changes during the course of capacitation. Therefore new bands after capacitation appear only at the molar weights of 32 kDa (acrosin binding protein), and 21 kDa protein (phospholipid hydroperoxide glutathione peroxidase). […] Final acrosome and plasma membrane modification status is similar at end of IVC regardless of the two IVC treatment conditions; however, the rate of change and cell death is faster in 15 mM sodium bicarbonate containing medium than experimental IVC medium (FIGS. 4A and 4B).
(§1) Upon 4 hours of IVC, sample size of 100 μL (4 million spermatozoa) were incubated 30 minutes with 1:200 H33342, 1:200 PI, and 1:100 FZ3 for epifluorescence microscopy. Lower probe concentrations were necessary for IBFC due to camera detection differences, thus 1:1000, 1:1000, and 1:500 were used, respectively, with inclusion of 1:1000 PNA-AF647. For Fluo-4 calcium probe, we followed manufacturer protocol using identical cell concentrations.
IBFC data acquisition was performed following previous methodology^56. Specifically, using a FlowSight flow cytometer (FS) fitted with a 20× microscope objective (numerical aperture of 0.9) with an imaging rate up to 2000 events per sec. The sheath fluid was PBS (without Ca^2+ or Mg^2+). The flow-core diameter and speed was 10 μm and 66 mm per sec, respectively. Raw image data were acquired using INSPIRE® software. To produce the highest resolution, the camera setting was at 1.0 μm per pixel of the charged-coupled device. In INSPIRE® FS data acquisition software, two brightfield channels were collected (channels 1 & 9), one FZ3 image (channel 2), one PI image (channel 5), one side scatter (SSC; channel 6), one H33342 (channel 7), and one PNA-AF647 image (channel 11), with a minimum of 10,000 spermatozoa collected. The following lasers and power settings were used: 405 nm (to excite H33342): 10 mW; 488 nm (to excite FZ3): 60 mW; 561 nm (to excite PI): 40 mW, 642 nm (to excite PNA-AF647): 25 mW; and 785 nM SSC laser: 10 mW.
Data were analyzed using IDEAS® analysis software from AMNIS EMD Millipore. Gating approach used standard focus and single cell gating calculations created by IDEAS software (FIG. 2A, left and middle panels). […]

boar spermatozoa [2] = assay: TPEN Zn chelation of spermatozoa, FZ3 zinc probe and Fluo-4 calcium probe fluorescence; format: cell-based, Sus scrofa; details: 10 μM, 40 million sperm per mL, 1 hour
Method: Zn^2+ chelation was performed using TPEN (membrane permeable). 10 μM TPEN was incubated with 40 million sperm per mL for 1 hour. Stock TPEN: 1 mM in 1:100 EtOH:H2O.
as §1
IBFC data acquisition was performed following previous methodology^56. […]
Data were analyzed using IDEAS® analysis software from AMNIS EMD Millipore. […] Events in focus were further gated to analyze only a single spermatozoa by plotting H33342 fluorescence area by aspect ratio (FIG. 2A, middle panel). […] Such mask was created by taking a morphology mask of the brightfield (FIG. 2B, first column), subtracting a 4-pixel dilation of H33342 (FIG. 2B, second column), resulting in a mask to analyze fluorescence in the tail region only (FIG. 2B, third and fourth columns). […] This combined gating and masking strategy shown in FIG. 2C provided robust clean data, ready for signature analysis by plotting FZ3 intensity of this masked region, which is impossible with traditional flow cytometry. […]

[3] = 100 μM in IVC media, 4 hours 37° C., pre-sperm rich fraction, mean±s.e.m., 3 biological replicates, 10,000 cells

For `CC(C)C[C@@H](C=O)NC(=O)[C@H](CC(C)C)NC(=O)[C@H](CC(C)C)NC(=O)OCc1ccccc1` [MG132] (Cbz-Leu-Leu-Leu-aldehyde), the “Signature 1 (portion of spermatozoa with zinc signature 1)” value (boar spermatozoa [1]; [3]) was 30.8% ± 13.1%^B, the “Signature 2 (portion of spermatozoa with zinc signature 2)” value (boar spermatozoa [1]; [3]) was 32.9% ± 19.5% and the “Signature 3 (portion of spermatozoa with zinc signature 3)” value (boar spermatozoa [1]; [3]) was 31.0% ± 4.9%^B. For the same compound, the “Signature 4 (portion of spermatozoa with zinc signature 4)” value (boar spermatozoa [1]; [3]) was 5.4% ± 4.9%^AB and the “Retention of zinc signature 1 during IVC as compared to IVC+vehicle” value (boar spermatozoa [1]; added to IVC conditions, pre-sperm rich fraction, P=0.0271 (signatures 1 & 2 combined P=0.0008)) was “significantly higher portion of spermatozoa retained signature 1”.

In the case of `c1ccc(CN(CCN(Cc2ccccn2)Cc2ccccn2)Cc2ccccn2)nc1` [TPEN, N,N,N′,N′-Tetrakis(2-pyridinylmethyl)-1,2-ethanediamine], the “FZ3 fluorescence / zinc signature after Zn chelation, compared to vehicle” value (boar spermatozoa [2]) is reported as “removed a majority of FZ3 fluorescence to signature 3 and 4 states” and the “Fluo-4 calcium probe intensity compared to vehicle” value (boar spermatozoa [2]) is reported as “did not reduce Fluo-4 calcium probe intensity”.

`[Cl-].[Cl-].[Zn+2]` [ZnCl2, zinc chloride] was tested, and the “Zinc signature after IVC with exogenous zinc” value (boar spermatozoa [1]; 1 mM added to IVC medium) was “retained signature 1”.
